These results are taken from US20080221161A1, “HETEROCYCLIC MODULATORS OF TGR5 FOR TREATMENT OF DISEASE” (KALYPSYS, INC., priority 2007, published 2008).

Molecules are shown by their SMILES. Counter-ions that a name gives are not always drawn.

The target of this assay is T1, human TGR5 (Homo sapiens, UniProt Q8TDU6).
T1 construct: expressed in transfected cells; host or cells: HEK-293 cells, stably transfected (pcDNA 3.1, Fugene6, geneticin selection)
T1 sequence (Q8TDU6 1-330): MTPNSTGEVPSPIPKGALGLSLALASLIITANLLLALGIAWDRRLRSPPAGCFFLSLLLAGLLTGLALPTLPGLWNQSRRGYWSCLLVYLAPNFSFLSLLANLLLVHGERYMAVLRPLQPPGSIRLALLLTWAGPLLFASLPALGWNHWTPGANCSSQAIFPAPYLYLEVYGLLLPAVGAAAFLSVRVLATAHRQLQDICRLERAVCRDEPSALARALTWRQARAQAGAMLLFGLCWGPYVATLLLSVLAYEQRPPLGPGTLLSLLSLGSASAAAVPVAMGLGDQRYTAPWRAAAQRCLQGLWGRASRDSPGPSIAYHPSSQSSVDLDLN
The experiment in a line: cAMP production assay in HEK293-TGR5 cells. It is filed as cell-based. The note with it: HEK293 cells stably expressing human TGR5; 30 minutes stimulation; LANCE cAMP TR-FRET; read-out: cAMP Production in 293-TGR5 Cells EC50. The procedure: HEK293 cells stably expressing TGR5 (HEK293-TGR5) were established by stably transfecting HEK-293 cells with an expression vector (pcDNA 3.1, Invetrogen) inserted with human TGR5 cDNA using Fugene6 (Roche, Indianapolis, Ind.) according to conventional methods. Cells were grown in DMEM (invitrogen, Carlsbad, Calif.) supplemented with 10% FBS, 1% penicillin/streptomycin under geneticin selection. The presence of TGR5 transcripts in these cells was confirmed using branched DNA (bDNA, Genospectra, Inc., Fremont Calif.) following the manufacturer's protocol and using specific probes for human TGR5. cAMP production assay was performed in high throughput 1536 well format using LANCE cAMP detection kit (Perkin Elmer Inc., Boston, Mass.) according to the manufacturer's protocol. Briefly, HEK293-TGR5 cells were harvested using non-enzymatic cell dissociation buffer (Invitrogen, Carlsbad, Calif.) and suspended in DMEM supplemented with 0.1% FBS at a density of 800,000 cells/ml. Alexa antibody was added to the cell suspension, and 4 ul of the mixture was dispensed in white opaque tissue culture treated Greiner 1536 well plates (USA Scientific, Inc., Ocala, Fla.). After an overnight incubation at 37C in an atmosphere of 10% CO2 and 95% humidity, 1 ul of 5 mM IBMX (Sigma, St. Louis, Mo.) solution in DMEM was dispensed for a final concentration of 1 mM. Cells were then stimulated with test compounds for 30 minutes, after which time 5 ul of detection reagent was added and incubated for 1-7 hrs at room temperature. TR-FRET signal was detected using the Viewlux (Perkin Elmer Inc., Boston Mass.). EC50 values were determined using Graph Pad Prizm analysis (GraphPad Software, Inc).
A word on the EC50: it is the concentration needed to bring the measured effect to its halfway point. With `COc1cc2cc(CNCCc3ccc(Br)cc3)c(-c3ccsc3)nc2cc1Cl` [Example 123, 2-(4-Bromophenyl)-N-((7-chloro-6-methoxy-2-(thiophen-3-yl)quinolin-3-yl)methyl)ethanamine], the EC50 was > 10 µM.

Turning to `FC(F)(F)Oc1ccc2cc(CNCCc3ccc(Br)cc3)c(-c3cccnc3)nc2c1` [Example 16, 2-(4-Bromophenyl)-N-((2-(pyridin-3-yl)-7-(trifluoromethoxy)quinolin-3-yl)methyl)ethanamine], the concentration giving a half-maximal response (EC50) is > 10 µM.

On to `Oc1ccc2cc(CNCCc3ccc(Br)cc3)c(-c3ccncc3)nc2c1` [Example 96, 3-((4-Bromophenethylamino)methyl)-2-(pyridin-4-yl)quinolin-7-ol], for which the EC50 is < 10 µM.

For the compound `COc1ccc2cc(CNCc3ccc(C(F)(F)F)cc3)c(-c3ncco3)nc2c1` [Example 37, 1-(7-Methoxy-2-(oxazol-2-yl)quinolin-3-yl)-N-(4-(trifluoromethyl)benzyl)methanamine], the EC50 was > 10 µM.

Take `CN(C)c1ccc2cc(CNCCc3ccc(Br)cc3)c(-c3ccsc3)nc2c1` [Example 89, 3-((4-Bromophenethylamino)methyl)-N,N-dimethyl-2-(thiophen-3-yl)quinolin-7-amine]: the concentration for a half-maximal effect (EC50) is > 10 µM.

Turning to `COc1ccc2cc(CNCCc3ccc(Cl)cc3)c(-c3ncco3)nc2c1` [Example 38, 2-(4-Chlorophenyl)-N-((7-methoxy-2-(oxazol-2-yl)quinolin-3-yl)methyl)ethanamine], the concentration for a half-maximal effect (EC50) is < 10 µM.

Regarding `COc1ccc2cc(CNC(C)Cc3ccc(Br)cc3)c(-c3ccsc3)nc2c1` (stereo not drawn) [Example 145, 1-(4-Bromophenyl)-N-((7-methoxy-2-(thiophen-3-yl)quinolin-3-yl)methyl)propan-2-amine], the 50% effective concentration (EC50) is > 10 µM.

Regarding `COc1ccc2cc(CNCCc3ccc(Cl)cc3)c(-c3ccoc3)nc2c1` [Example 117, 2-(4-Chlorophenyl)-N-((2-(furan-3-yl)-7-methoxyquinolin-3-yl)methyl)ethanamine], the EC50 is > 10 µM.

On to `CNC(=O)c1ccc2cc(CNCCc3ccc(Br)cc3)c(-c3ccsc3)nc2c1` [Example 140, 3-((4-Bromophenethylamino)methyl)-N-methyl-2-(thiophen-3-yl)quinoline-7-carboxamide], for which the EC50 was < 10 µM.

In the case of `COc1ccc2cc(CNCc3ccc(C(F)(F)F)cc3)c(-c3cscc3C)nc2c1` [Example 55, 1-(7-Methoxy-2-(4-methylthiophen-3-yl)quinolin-3-yl)-N-(4-(trifluoromethyl)benzyl)methanamine], the EC50 is > 10 µM.

Consider `COc1ccc2cc(CNc3ccc(Cl)cc3)c(-c3ccsc3)nc2c1` [Example 69, 4-Chloro-N-((7-methoxy-2-(thiophen-3-yl)quinolin-3-yl)methyl)aniline], for which the EC50 is < 10 µM.

On to `COc1ccc2cc(CN(CCc3ccc(Cl)cc3)S(C)(=O)=O)c(-c3ccsc3)nc2c1` [Example 33, N-(4-Chlorophenethyl)-N-((7-methoxy-2-(thiophen-3-yl)quinolin-3-yl)methyl)methanesulfonamide], for which the half-maximal effective concentration (EC50) was > 10 µM.

For the compound `COc1ccc2cc(CNCc3ccc(C(F)(F)F)cc3)c(-c3ccoc3)nc2c1` [Example 90, 1-(2-(Furan-3-yl)-7-methoxyquinolin-3-yl)-N-(4-(trifluoromethyl)benzyl)methanamine], the EC50 was > 10 µM.

As to `CSc1ccc2cc(CNCc3ccc(C(F)(F)F)cc3)c(-c3ccsc3)nc2c1` [Example 40, 1-(7-(Methylthio)-2-(thiophen-3-yl)quinolin-3-yl)-N-(4-(trifluoromethyl)benzyl)methanamine], the EC50 was > 10 µM.

As for `CCOc1ccc2cc(CNCc3ccc(C(F)(F)F)cc3)c(-c3ccsc3)nc2c1` [Example 51, 1-(7-Ethoxy-2-(thiophen-3-yl)quinolin-3-yl)-N-(4-(trifluoromethyl)benzyl)methanamine], the EC50 was < 10 µM.

On to `COc1ccc2nc(-c3ccsc3)c(CNCc3ccc(C(F)(F)F)cc3)cc2c1` [Example 26, 1-(6-Methoxy-2-(thiophen-3-yl)quinolin-3-yl)-N-(4-(trifluoromethyl)benzyl)methanamine], for which the EC50 is > 10 µM.

Turning to `COc1ccc2cc(CNC3CCc4ccccc43)c(-c3ccncc3)nc2c1` (racemic) [Example 86, (±)-N-((7-Methoxy-2-(pyridin-4-yl)quinolin-3-yl)methyl)-2,3-dihydro-1H-inden-1-amine], the EC50 was < 10 µM.

In the case of `COc1ccc2cc(CNCc3cccc(C(F)(F)F)c3)c(-c3ccsc3)nc2c1` [Example 3, 1-(7-Methoxy-2-(thiophen-3-yl)quinolin-3-yl)-N-(3-(trifluoromethyl)benzyl)methanamine], the 50% effective concentration (EC50) was < 10 µM.

With `COc1ccc2cc(CNCc3ccc(N(C)C)cc3)c(-c3cccnc3)nc2c1` [Example 11, 4-(((7-Methoxy-2-(pyridin-3-yl)quinolin-3-yl)methylamino)methyl)-N,N-dimethylaniline], the concentration giving a half-maximal response (EC50) is < 10 µM.

Regarding `Oc1ccc2cc(CNCCc3ccc(Cl)c(Cl)c3)c(-c3ccsc3)nc2c1` [Example 101, 3-((3,4-Dichlorophenethylamino)methyl)-2-(thiophen-3-yl)quinolin-7-ol], the EC50 was < 10 µM.

On to `COc1ccc2cc(CNCc3ccc4c(c3)OCO4)c(-c3ccsc3)nc2c1` [Example 64, 1-(Benzo[d][1,3]dioxol-5-yl)-N-((7-methoxy-2-(thiophen-3-yl)quinolin-3-yl)methyl)methanamine], for which the EC50 is > 10 µM.

As for `COc1ccc2cc(CNCc3ccncc3)c(-c3ccsc3)nc2c1` [Example 70, 1-(7-Methoxy-2-(thiophen-3-yl)quinolin-3-yl)-N-(pyridin-4-ylmethyl)methanamine], the EC50 is > 10 µM.

Consider `Oc1cc2cc(CNCCc3ccc(Br)cc3)c(-c3ccsc3)nc2cc1Cl` [Example 124, 3-((4-Bromophenethylamino)methyl)-7-chloro-2-(thiophen-3-yl)quinolin-6-ol], for which the EC50 is > 10 µM.

In the case of `COc1cc2cc(CNCCc3ccc(Br)cc3)c(-c3ccsc3)nc2cc1C` [Example 131, 2-(4-Bromophenyl)-N-((6-methoxy-7-methyl-2-(thiophen-3-yl)quinolin-3-yl)methyl)ethanamine], the EC50 is < 10 µM.

Turning to `COc1ccc2cc(CNCc3ccc([N+](=O)[O-])cc3)c(-c3ccsc3)nc2c1` [Example 67, 1-(7-Methoxy-2-(thiophen-3-yl)quinolin-3-yl)-N-(4-nitrobenzyl)methanamine], the EC50 is < 10 µM.

As for `COc1ccc2cc(CCNCc3ccc(C(F)(F)F)cc3)c(-c3ccsc3)nc2c1` [Example 106, 2-(7-Methoxy-2-(thiophen-3-yl)quinolin-3-yl)-N-(4-(trifluoromethyl)benzyl)ethanamine], the half-maximal effective concentration (EC50) is > 10 µM.

For the compound `COc1cc2cc(CNCCc3ccc(Br)cc3)c(-c3ccsc3)nc2cc1F` [Example 125, 2-(4-Bromophenyl)-N-((7-fluoro-6-methoxy-2-(thiophen-3-yl)quinolin-3-yl)methyl)ethanamine], the 50% effective concentration (EC50) is > 10 µM.

`CC(=O)Nc1ccc2cc(CNCCc3ccc(Br)cc3)c(-c3ccsc3)nc2c1` [Example 142, N-(3-((4-bromophenethylamino)methyl)-2-(thiophen-3-yl)quinolin-7-yl)acetamide]: the EC50 is > 10 µM.

Take `FC(F)(F)c1ccc(CNCc2cc3ccccc3nc2-c2ccsc2)cc1` [Example 28, 1-(2-(Thiophen-3-yl)quinolin-3-yl)-N-(4-(trifluoromethyl)benzyl)-methanamine]: the EC50 was < 10 µM.

`COc1ccc2cc(CNCc3ccc(Cl)c(Cl)c3)c(-c3ccsc3)nc2c1` [Example 66, N-(3,4-Dichlorobenzyl)-1-(7-methoxy-2-(thiophen-3-yl)quinolin-3-yl)methanamine]: the 50% effective concentration (EC50) is < 10 µM.

With `COc1ccc2cc(CNCCc3ccc(Cl)cc3)c(-c3ccncc3)nc2c1` [Example 22, 2-(4-Chlorophenyl)-N-((7-methoxy-2-(pyridin-4-yl)quinolin-3-yl)methyl)ethanamine], the 50% effective concentration (EC50) was < 10 µM.

Consider `COc1ccc2cc(CNCc3ccc(OC(F)(F)F)cc3)c(-c3cccnc3)nc2c1` [Example 10, 1-(7-Methoxy-2-(pyridin-3-yl)quinolin-3-yl)-N-(4-(trifluoromethoxy)benzyl)methanamine], for which the EC50 is > 10 µM.

For the compound `COc1ccc2cc(CNCCc3ccc(Br)cc3)c(O)nc2c1` [Example 149, 3-((4-Bromophenethylamino)methyl)-7-methoxyquinolin-2(1H)-one hydrochloride], the EC50 was > 10 µM.
